Measurements: patent US4387102A, “4-(N-(3',4'-Methylenedioxybenzylidene)-aminomethyl)cyclohex ane-1-carboxylic acid and derivatives thereof and pharmaceutical composition thereof” (Kureha Kagaku Kogyo Kabushiki Kaisha, priority 1980, dated 1983)

How the values were obtained:
female JCL-ICR mice = assay: Acute oral toxicity test; assay type: in vivo, mouse; settings: 3000 mg/kg, female JCL-ICR mice of five weeks
Procedure: (5-2) Acute oral toxicity test were carried out by orally administering aqueous solutions of sodium 4-[N-(3',4'-methylenedioxybenzylidene)aminomethyl]cyclohexane-1-carboxylate to groups of female JCL-ICR mice of five weeks after birth.

rabbit's platelets = assay: Inhibition of blood platelet aggregation induced by sodium arachidonate (platelet aggregation tracer PAT 4A); assay type: cell-based; settings: 400 micromols sodium arachidonate
Procedure: (5-1) Test for inhibition of platelet aggregation was carried out while using rabbit's platelets, an aqueous physiological saline solution of sodium 4-[N-([…]-methylenedioxybenzylidene)aminomethyl]cyclohexane-1-carboxylate and 400 micromols of sodium arachidonate as the aggregation agent in a platelet aggregation tracer PAT 4A (made by Niko Bioscience Company, Japan) as the testing apparatus.

[1] = test system: polymorphonuclear leukocytes; assay: Inhibition of migration of polymorphonuclear leukocytes to the inflammatory region (Granuloma-CMC-Pouch method); assay type: in vivo, rat; settings: single oral dose, male Donryu rats, present compound 100 mg/kg, indomethacin 10 mg/kg (footnote)
Procedure: Tests for inhibition of migration of polymorphonuclear leukocytes to the inflammatory region due to sodium 4-[N-(3',4'-methylenedioxybenzylidene)aminomethyl]cyclohexane-1-carboxylate were carried out following the method of Granuloma-CMC-Pouch (refer to Ishikawa et al. J. Pharmaceut. Soc. Jap., Vol. 88, page 1472, 1968).
Namely, after cutting the hair on the back of male rats (Donryu, body weight: 150 g), 5 ml of air was injected subcutaneously into the hair-cut region and further, 5 ml of aqueous 2% (W/V) solution of sodium carboxymethyl cellulose (CMC) at 37° C. was injected.
Specimens of the liquid (0.5 ml, each) effused into the pouch were collected at 3, 6 and 24 hours after 2% CMC solution were injected respectively and then the number of polymorphonuclear leukocytes in the specimen was counted after staining to determine the rate of inhibition of migration of the polymorpholeukocyte as compared to the number of the polymorpholeukocytes in the specimen collected from control animal to which the aqueous CMC solution was injected after air injection.
In this test, sodium 4-[N-(3',4'-methylenedioxybenzylidene)aminomethyl]cyclohexane-1-carboxylate was orally administered as a solution in aqueous physiological saline solution at a dose of 100 mg/kg at the time of injecting the solution of CMC, and as a control, […] at the time of injecting the solution of CMC.

[2] = 3 hours of injection of CMC, control 3.5 × 10^3
[3] = 6 hours of injection of CMC, control 5.9 × 10^3
[4] = 24 hours of injection of CMC, control 14.9 × 10^3

| Compound | abnormality in acute oral toxicity test (female JCL-ICR mice) | percent of inhibition of the aggregation of the platelets by sodium arachidonate (rabbit's platelets; 500 micromols compound) [%] | percent of inhibition of the aggregation of the platelets by sodium arachidonate (rabbit's platelets; 1000 micromols compound) [%] | percent of inhibition of the aggregation of the platelets by sodium arachidonate (rabbit's platelets; 1500 micromols compound) [%] | R.I. (inhibitory rate of migration of polymorphonuclear leukocytes into the pouch as compared to control) ([1]; 3 hours of injection of CMC) [%] | Number of polymorphonuclear leukocytes [1, 2] | R.I. (inhibitory rate of migration of polymorphonuclear leukocytes into the pouch as compared to control) ([1]; 6 hours of injection of CMC) [%] | Number of polymorphonuclear leukocytes [1, 3] | R.I. (inhibitory rate of migration of polymorphonuclear leukocytes into the pouch as compared to control) ([1]; 24 hours of injection of CMC) [%] | Number of polymorphonuclear leukocytes [1, 4] |
| --- | --- | --- | --- | --- | --- | --- | --- | --- | --- | --- |
| O=C([O-])C1CCC(CN=Cc2ccc3c(c2)OCO3)CC1.[Na+] (stereo not shown) [Present compound, sodium 4-[N-(3',4'-methylenedioxybenzylidene)aminomethyl]cyclohexane-1-carboxylate] | no abnormality was found | 30 | 75 | 100 | 46 | 1.9 × 10^3 Number/mm^3 | 54 | 2.7 × 10^3 Number/mm^3 | 32 | 10.1 × 10^3 Number/mm^3 |
| COc1ccc2c(c1)c(CC(=O)O)c(C)n2C(=O)c1ccc(Cl)cc1 [Indomethacin, indomethacin, reference compound] | – | – | – | – | 34 | 2.3 × 10^3 Number/mm^3 | 31 | 4.1 × 10^3 Number/mm^3 | 28 | 10.8 × 10^3 Number/mm^3 |
